Measured values as given in US9937178B2, “Methods of identifying and using MDM2 inhibitors” (DUKE UNIVERSITY, priority 2011, dated 2018).

Columns and labels:
[1] = tested on: CAS; assay: Immunoblot of CAS protein levels; assay type: cell-based
Description: FIG. 11 is a set of photographs of immunoblots showing CAS degradation in lapatinib-resistant cells. FIG. 11A is an immunoblot for CAS and Actin. BT474 and rBT474 (left) or AU565 and rAU565 cells (right) cultured in the absence of lapatinib for one week were treated with 1 μM lapatinib and the cells were harvested at various time points. FIG. 11B is an immmunoblot for CAS and Actin. rBT474 cells were maintained in the presence of […] lapatinib and the cells were harvested at various time points following removal of lapatinib. FIG. 11C is an immunoblot for FLAG and actin. BT474 and rBT474 cells were transiently transfected with FLAG-tagged CAS and subsequently treated with 50 μg/ml cycloheximide (CHX) and 1 μM lapatinib and the cells were harvested at various time points. FIG. 11D is an immunoblot using HA to analyze ubiquitination of CAS. BT474 and rBT474 (left) or SKBR3 and rSKBR3 cells (right) were co-transfected with FLAG-CAS and HA-Ub. […] After treatment with 10 μM MG 132 for 8 hours, cells were harvested and FLAG-CAS was retrieved by immunoprecipitation. FIG. 11E is an immunoblot for FLAG-tagged proteins retrieved by immunoprecipitation and association with MDM2. H1299 cells were transfected with empty vector, FLAG-CAS^W127A, or FLAG-CAS wild type. FIG. 11F is an immunoblot for CAs after immunoprecipitation for FLAG. H1299 cells were transfected with empty vector, FLAG-CAS^W127A, or FLAG-CAS wild type. Cells were treated with 10 μM MG132 for 3 hours. […] SKBR3 cells were transfected with increasing amounts of MDM2. After 48 hours, cells were harvested and immunoblotted (*non-specific band). FIG. 11H is an immunoblot for CAS. […] FIG. 11I is an immunoblot for MDM2 or CAs after immunoprecipitation with FLAG. BT474 and rBT474 cells were transfected with FLAG-CAS. […] After treatment with 10 μM MG132 for 5 hours, FLAG-CAS was retrieved by immunoprecipitation and association of endogenous MDM2 was analyzed by immunoblotting.

[2] = tested on: Akt; assay: Immunoblot of phospho-AKT in lapatinib-treated cells; assay type: cell-based; conditions: sensitive and resistant cells, 1 μM lapatinib, 50 μM z-VAD
[3] = tested on: AU565-derived tumor; assay: AU565 mammary fat pad xenograft; assay type: in vivo, mouse; conditions: 100 mg/kg each drug, twice daily by oral gavage
Description: (§1) Six week-old female nude mice were purchased from NCI Frederic. Xenograft tumors were produced by injection into the mammary fat pad with cells (10×10^6). Tumor volumes were calculated every 3-4 days based on caliper measurements of the short (a) and long (b) tumor diameters (volume=a2b/2). […] Mice were dosed orally with vehicle alone, lapatinib (100 mg/kg), Nutlin-3 (100 mg/kg), or combination of both twice daily by gavage.

[4] = tested on: rAU565-derived tumor; assay: rAU565 mammary fat pad xenograft; conditions: 100 mg/kg each drug, twice daily by oral gavage
Description: as §1

[5] = tested on: Mcl-1; assay: Immunoblot of Mcl-1 protein levels; assay type: cell-based; conditions: 1 μM lapatinib
Description: FIG. 3 is a set of photographs showing that Mcl-1 is stabilized in lapatinib-resistant cells. […] FIG. 3B is a set of immunoblots showing the levels of HER2 and phospho-HER2 in untreated cells and cells treated with lapatinib. Cells were treated with or without lapatinib (1 μM) for 24 hours in the presence of the caspase inhibitor z-VAD (50 μM). The cells were harvested and cell lysates were immunoblotted using antibodies against phospho-HER2 (Y877) and total HER2. FIG. 3C is an immunoblot for phospho-AKT (T308) and total AKT. BT474 and rBT474 cells were treated with 1 μM lapatinib in the presence of 50 μM z-VAD. At the indicated time points, the cells were harvested and immunoblotted. FIG. 3D is an immunoblot for phospho-Erl1/2(T202/Y204) and total Erk1/2. BT474 and rBT474 cells were treated with 1 μM lapatinib in the presence of 50 μM z-VAD. At the indicated time points, the cells were harvested and immunoblotted. FIG. 3E is an immunoblot for Mcl-1, Bim, and Actin. BT474 and rBT474 cells (left) or SKBR3 and rSKBR3 cells (right) were treated with 1 μM lapatinib. The cells were harvested at the indicated time points and immunoblotted. FIG. 3F is an autoradiograph showing the ^35[S] radioactivity in lysates containing ^35[S]-Mcl-1 at the indicated time points. ^35[S]-labeled Mcl-1 protein was incubated in cell-free lysates prepared from BT474 and rBT474 cells (top) or SKBR3 and rSKBR3 cells (bottom). FIG. 3G is an autograph showing the ^35[S]-labeled Mcl-1 to monitor Mcl-1 stability over time. The ^35[S]-labeled Mcl-1 was incubated in lysates prepared from rBT474 cells treated with or without 1 μM lapatinib. FIG. 3H is an immunoblot for HA. SKBR3 or rSKBR3 cells were co-transfected with FLAG-Mcl-1 and HA-Ubiquitin (Ub). […] Cells were harvested after treatment with 10 μM MG 132 for 4 hours. FLAG-Mcl-1 was retrieved by immunoprecipitation using anti-flag agarose, and Mcl-1 ubiquitylation was analyzed by immunoblotting for HA (*non-specific band, **IgG heavy chain).

In the case of `CS(=O)(=O)CCNCc1ccc(-c2ccc3ncnc(Nc4ccc(OCc5cccc(F)c5)c(Cl)c4)c3c2)o1` [lapatinib], the CAS protein levels ([1]; low-HER2 lines non-responsive to lapatinib (e.g., T47D cells)) is reported as “did not alter”, the CAS protein levels ([1]; parental cells, 1 μM lapatinib) is reported as “did not affect” and the CAS protein levels ([1]; resistant cells, 1 μM lapatinib) is reported as “declined over time”. The “phosphorylation of Akt” value [2] was “attenuated”, the AU565-derived tumor growth [3] was “substantially inhibited” and the rAU565-derived tumor growth [4] was “not rAU565-derived tumor growth”. The Mcl-1 protein levels ([5]; resistant cells) was “increased” and the Mcl-1 protein levels ([5]; sensitive cells) was “decreased”.
